The record followed here is paper PMC7249047, “Search for ABCB1 Modulators Among 2-Amine-5-Arylideneimidazolones as a New Perspective to Overcome Cancer Multidrug Resistance” (Molecules, 2020).

Where only a bound is given, the exact number is not on record here.

For one data set, the target named is T1, Pgp (ABCB1) ATPase (Homo sapiens, UniProt P08183).
T1 construct: purchased Promega (Madison, WI, USA)
Description: Luminescent Pgp-Glo Assay (Pgp ATPase intrinsic activity). To be noted: 100 µM, 40 min, 37 °C; substrates stimulate basal activity (>100%). It counts as biochemical. The procedure:
Compounds 11, 12, and 18 were tested at 100 µM on their influence on the ATPase activity of the Pgp pump in the luminescence Pgp-Glo™ Assay, according to previously described methods and protocols. In this assay, luminescence was measured. The Pgp-dependent decreases in luminescence reflect the ATP consumption by Pgp. […] Thus, inhibitors give results <100% of the basal activity, while stimulators/substrates cause a statistically significant increase in the basal activity. […].
The luminescent Pgp-Glo™ Assay System used for determination of the arylideneimidazolone influence on P-glycoprotein activity was purchased from Promega (Madison, WI, USA). The assay was performed in triplicate as described previously. […]. For basal P-gp activity calculation, the membranes were incubated with 100 µM of Na3VO4. The luminescence signal was measured by a microplate reader EnSpire PerkinElmer (Waltham, MA, USA). The statistical significances were calculated using GraphPad Prism 8.0.1 software.

A further data set has as its target ABCB1 efflux pump (Homo sapiens, UniProt P08183). Description: Rhodamine 123 accumulation assay (flow cytometry). To be noted: for FAR Quotient (%): FAR of compound related to FAR of VER tested at 20 µM; for FAR (fluorescence activity ratio): rhodamine 123 accumulation, MDR vs PAR mouse T-lymphoma cells. On the technique in general: In flow cytometry, cells or beads pass a laser one at a time.

The subject of data set [1] is multidrug-resistant (MDR) mouse T-lymphoma cells. The data set can be described thus: Antiproliferative MTT assay, 72 h, MDR cells. It counts as cell-based. To be noted: for SI (selectivity index), antiproliferative: MDR with respect to PAR cells; for IC50: Mus musculus, MDR cells, 72 h, MTT, read-out: Antiproliferative effect IC50. The procedure:
(§1) The ABCB1-expressing cell line L5178Y (MDR) was selected by culturing the infected cells with colchicine. The parental L5178 mouse T-cell lymphoma cells and the L5178Y human ABCB1-transfected subline were cultured in McCoy’s 5A medium (Sigma-Aldrich, St Louis, MO, USA) supplemented with 10% heat-inactivated horse serum (Sigma-Aldrich, St Louis, MO, USA), 200 mM L-glutamine (Sigma-Aldrich, St Louis, MO, USA), and a penicillin-streptomycin (Sigma-Aldrich, St Louis, MO, USA) mixture in concentrations of 100 U/L and 10 mg/L, respectively.
(§2) Cytotoxicity and antiproliferative assays were performed following the procedure described in the literature. Parental and multidrug-resistant mouse T-lymphoma cells were used to determine the effect of the arylideneimidazolones on the growth of cells. The effects of increasing concentrations of arylideneimidazolones on cell growth were tested in 96-well flat-bottomed microtiter plates. The compounds were diluted in a volume of 100 μL of medium.
(§3) In the case of the mouse T-lymphoma cells, the two-fold serial dilutions were prepared in 100 μL of McCoy’s 5A, horizontally. The parental (PAR) and multidrug-resistant (MDR) mouse T-lymphoma cells were adjusted to a density of 1 × 10^4 cells (for cytotoxic assay) and 6 × 10^3 (for antiproliferative assay) in 100 μL of McCoy’s 5A medium and were added to each well, with the exception of the medium control wells.
(§4) Cell growth was determined by measuring the optical density (OD) at 540/630 nm with a Multiscan EX ELISA reader (Thermo Labsystems, Cheshire, WA, USA).

Data set [2] is described as follows: Cytotoxicity MTT assay, 24 h, MDR cells. Format: cell-based. To be noted: mouse; for IC50 at 24 h: MDR cells, MTT, read-out: Cytotoxic effect IC50; for selectivity ratio at 24 h: cytotoxic action on MDR with respect to PAR cells, read-out: SI (selectivity index), cytotoxicity. The procedure: (§5) The cytotoxicity of compounds 7–20 was examined in both aforementioned PAR and MDR mouse T-lymphoma cell lines, using the MTT assay to estimate IC50 values. The selectivity index for cytotoxic action on MDR with respect to PAR cells was calculated (SI, Table 3). […] This range of SI may indicate ABCB1-efflux pump substrate properties for the whole series (7–20), especially distinct in the case of 19 (SI ≤ 0.29), and slightly weaker for 8, 12, 16, and 18.
as §1, with “L5178 mouse T-cell lymphoma cells (PAR) (ECACC Cat. No. 87111908, obtained from FDA, Silver Spring, MD, USA) were transfected with pHa MDR1/A retrovirus, as previously described by Cornwell et al.. The ABCB1-expressing” for “The ABCB1-expressing”, “mg/L, respectively. The cell lines were incubated at 37 °C, in a 5% CO2, 95% air atmosphere.” for “mg/L, respectively.”
as §2, §3
(§6) The culture plates were incubated at 37 °C for 24 h (for cytotoxicity assay) and 72 h (for antiproliferative assay); at the end of the incubation period, 20 μL of MTT (thiazolyl blue tetrazolium bromide, Sigma) solution (from a stock solution of 5 mg/mL) were added to each well. After incubation at 37 °C for 4 h, 100 μL of sodium dodecyl sulfate (SDS) (Sigma) solution (10% in 0.01 M HCI) were added to each well and the plates were further incubated at 37 °C overnight. Cell growth was determined by measuring the optical density (OD) at 540/630 nm with a Multiscan EX ELISA reader (Thermo Labsystems, Cheshire, WA, USA).
(§7) Results have been expressed in terms of IC50, defined as the inhibitory dose that reduces the growth of the cells exposed to the tested compounds by 50%, each representing the mean of a minimum of three independent experiments.
In general terms: Tetrazolium dyes change colour on reduction, which living cells bring about.

Data set [3] in a line: Cytotoxicity MTT assay, 24 h, PAR cells. It counts as cell-based. To be noted: mouse, parental (PAR) L5178 mouse T-cell lymphoma cells, read-out: Cytotoxic effect IC50. The procedure: as §5
as §1, with “L5178 mouse T-cell lymphoma cells (PAR) (ECACC Cat. No. 87111908, obtained from FDA, Silver Spring, MD, USA) were transfected with pHa MDR1/A retrovirus, as previously described by Cornwell et al.. The ABCB1-expressing” for “The ABCB1-expressing”, “mg/L, respectively. The cell lines were incubated at 37 °C, in a 5% CO2, 95% air atmosphere.” for “mg/L, respectively.”
as §2, §3, §6, §7

For data set [4], the system named is parental (PAR) mouse T-lymphoma cells. Description: Antiproliferative MTT assay, 72 h, PAR cells. Format: cell-based. The conditions noted are these: read-out: Antiproliferative effect IC50. The procedure: as §1, §2, §3, §4
The mark [5] stands for this setting: concentration 20 µM, VER values for assay group 1 / 2.

Chain of ABCB1 efflux pump (P08183 whole entry): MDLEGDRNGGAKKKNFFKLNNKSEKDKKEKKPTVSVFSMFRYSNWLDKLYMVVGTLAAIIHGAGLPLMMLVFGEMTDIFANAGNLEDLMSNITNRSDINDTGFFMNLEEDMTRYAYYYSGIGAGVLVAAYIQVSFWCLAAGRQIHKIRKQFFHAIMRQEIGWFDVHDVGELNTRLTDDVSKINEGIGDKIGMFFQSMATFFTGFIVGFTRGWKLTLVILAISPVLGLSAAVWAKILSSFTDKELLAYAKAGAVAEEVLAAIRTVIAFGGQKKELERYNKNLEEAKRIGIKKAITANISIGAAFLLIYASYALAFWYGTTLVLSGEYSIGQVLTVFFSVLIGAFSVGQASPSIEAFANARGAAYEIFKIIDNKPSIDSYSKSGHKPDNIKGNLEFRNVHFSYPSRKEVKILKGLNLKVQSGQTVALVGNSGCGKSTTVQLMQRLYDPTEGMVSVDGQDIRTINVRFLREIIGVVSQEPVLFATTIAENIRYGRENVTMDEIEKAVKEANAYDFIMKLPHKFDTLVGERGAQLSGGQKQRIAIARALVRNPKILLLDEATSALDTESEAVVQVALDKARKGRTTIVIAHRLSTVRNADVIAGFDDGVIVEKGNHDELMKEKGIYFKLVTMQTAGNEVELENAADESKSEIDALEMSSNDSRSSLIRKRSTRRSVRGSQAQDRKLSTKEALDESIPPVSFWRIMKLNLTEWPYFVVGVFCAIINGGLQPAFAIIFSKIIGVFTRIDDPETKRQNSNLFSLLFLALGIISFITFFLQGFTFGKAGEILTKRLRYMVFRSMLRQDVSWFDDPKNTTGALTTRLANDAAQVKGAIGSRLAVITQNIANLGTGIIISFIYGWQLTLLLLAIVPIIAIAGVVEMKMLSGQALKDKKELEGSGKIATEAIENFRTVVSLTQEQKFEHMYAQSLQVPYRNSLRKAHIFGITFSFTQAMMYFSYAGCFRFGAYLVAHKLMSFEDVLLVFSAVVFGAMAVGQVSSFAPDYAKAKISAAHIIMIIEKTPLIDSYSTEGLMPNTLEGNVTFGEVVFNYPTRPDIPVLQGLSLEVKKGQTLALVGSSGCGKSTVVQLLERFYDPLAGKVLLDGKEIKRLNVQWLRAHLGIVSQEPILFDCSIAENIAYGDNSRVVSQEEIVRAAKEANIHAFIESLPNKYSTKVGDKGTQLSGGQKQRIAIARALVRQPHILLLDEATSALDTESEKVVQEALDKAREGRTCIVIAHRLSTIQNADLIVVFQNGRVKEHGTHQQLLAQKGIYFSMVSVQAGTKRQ
T1 sequence (P08183 whole entry): as above
Description for ABCB1 efflux pump: The study was carried out on mouse T-lymphoma cell lines, including the parental sensitive line (PAR) and its multidrug-resistant subline (MDR) transfected with the human MDR1 (ABCB1) gene. […] The fluorescence activity ratio (FAR), as a measure of the efflux pump modulating properties, was calculated based on the fluorescence data obtained [23, 24, 25]. […] The parental L5178 mouse T-cell lymphoma cells and the L5178Y human ABCB1-transfected subline were cultured in McCoy’s 5A medium (Sigma-Aldrich, St Louis, MO, USA) supplemented with 10% heat-inactivated horse serum (Sigma-Aldrich, St Louis, MO, USA), 200 mM L-glutamine (Sigma-Aldrich, St Louis, MO, USA), and a penicillin-streptomycin (Sigma-Aldrich, St Louis, MO, USA) mixture in concentrations of 100 U/L and 10 mg/L, respectively.
The potency of the tested compounds as inhibitors of the ABCB1 efflux pump was determined using a fluorescence-based detection system, described previously in the literature [23, 26]. […] The parental (PAR) and multidrug-resistant (MDR) mouse T-lymphoma cells were adjusted to a density of 2 × 10^6/mL, re-suspended in serum-free McCoy’s 5A medium, and distributed in 0.5 mL aliquots into Eppendorf centrifuge tubes. […] The fluorescence intensity of the cell population was measured with a Partec CyFlow flow cytometer (Partec, Munster, Germany). […] The mean fluorescence intensity (%) was calculated for the treated MDR and PAR mouse T-lymphoma cells as compared to the untreated cells.

The term IC50 denotes the midpoint of a concentration-inhibition curve. For orientation: melting point means the temperature, or range, at which the solid turns liquid. Consider `Cl.O=C1N=C(N2CCC(N3CCOCC3)CC2)N/C1=C\c1ccc2c(c1)Cc1ccccc1-2` [Compound 12, (Z)-5-((9H-Fluoren-2-yl)methylene)-2-(4-morpholinopiperidin-1-yl)-imidazol-4(5H)-one hydrochloride], for which the melting point was in the range of 274 to 276 °C. The “effect on ABCB1 basal activity (Pgp ATPase)” value at Pgp (ABCB1) ATPase is given as “increased the basal activity”. Also, on ABCB1 efflux pump (concentration 2 µM), the “FAR Quotient (%)” value was 8.88% and the “FAR (fluorescence activity ratio)” value stood at 1.161. Further, the “FAR Quotient (%)” value at ABCB1 efflux pump (concentration 20 µM) came out at 46.23%. Also, on ABCB1 efflux pump (setting [5]), the “FAR (fluorescence activity ratio)” value is given as 6.045. For the same molecule, in data set [1], the “SI (selectivity index), antiproliferative” value (from here on “SI (selectivity index)”) was determined as 0.78 and the IC50 was 16.2 µM. In data set [2], the IC50 at 24 h amounted to 30.8 µM and the selectivity ratio at 24 h worked out at 0.51. For the same molecule, the IC50 at 24 h in data set [3] was determined as 15.8 µM. In addition, in data set [4], the IC50 amounted to 12.7 µM.

`Cl.O=C1N=C(N2CCC(N3CCOCC3)CC2)N/C1=C\c1cccc(Oc2ccccc2)c1` [Compound 10, (Z)-5-(3-Phenoxybenzylidene)-2-(4-morpholinopiperidin-1-yl)-imidazol-4(5H)-one hydrochloride]: the melting point lay within 289 to 292 °C. Also, on ABCB1 efflux pump (concentration 2 µM), the “FAR Quotient (%)” value came out at 6.92% and the “FAR (fluorescence activity ratio)” value came to 1.108. Further, the “FAR Quotient (%)” value at ABCB1 efflux pump (concentration 20 µM) was determined as 12.44%. On ABCB1 efflux pump (setting [5]), the “FAR (fluorescence activity ratio)” value amounted to 1.992. In data set [1], the “SI (selectivity index)” value was found to be 1.18 and the IC50 was determined as 22.4 µM. Further, in data set [2], the IC50 at 24 h stood at 63.8 µM and the selectivity ratio at 24 h amounted to 0.85. Besides, the IC50 at 24 h in data set [3] is 54 µM. Also, the IC50 in data set [4] came to 26.4 µM.

As for `Cl.O=C1NC(N2CCOCC2)=N/C1=C\c1ccc(-c2ccccc2)cc1` [Compound 7, (Z)-5-(Biphen-4-ylmethylene)-2-morpholino-3H-imidazol-4(5H)-one hydrochloride], the melting point lay within 248 to 252 °C. Further, at ABCB1 efflux pump (concentration 2 µM), the “FAR Quotient (%)” value is 7.31% and the “FAR (fluorescence activity ratio)” value was 0.955. Moreover, the “FAR Quotient (%)” value on ABCB1 efflux pump (concentration 20 µM) is recorded as 7.09%. Further, the “FAR (fluorescence activity ratio)” value on ABCB1 efflux pump (setting [5]) is listed as 0.927. Also, in data set [1], the “SI (selectivity index)” value is 0.67 and the IC50 is 26.3 µM. In data set [2], the IC50 at 24 h was 54.2 µM and the selectivity ratio at 24 h was found to be 0.99. Besides, the IC50 at 24 h in data set [3] worked out at 53.5 µM. In data set [4], the IC50 was 17.6 µM.

On to `Cl.NC1=N/C(=C\c2ccc(-c3ccccc3)cc2)C(=O)N1CCCN1CCOCC1` [Compound 15, (Z)-5-(Biphen-4-ylmethylene)-2-amino-3-(3-morpholinopropyl)-imidazol-4(5H)-one hydrochloride], for which the melting point was 248 to 252 °C. For the same molecule, on ABCB1 efflux pump (concentration 2 µM), the “FAR Quotient (%)” value is listed as 6.78% and the “FAR (fluorescence activity ratio)” value is listed as 0.887. Further, the “FAR Quotient (%)” value on ABCB1 efflux pump (concentration 20 µM) stood at 16.98%. The “FAR (fluorescence activity ratio)” value at ABCB1 efflux pump (setting [5]) is reported as 2.221. In data set [1], the “SI (selectivity index)” value is 0.75 and the IC50 came to 13.6 µM. Further, in data set [2], the IC50 at 24 h was determined as 20.8 µM and the selectivity ratio at 24 h was found to be 0.84. The IC50 at 24 h in data set [3] amounted to 17.5 µM. Further, the IC50 in data set [4] was 10.3 µM.

For `Cl.O=C1N=C(N2CCC(N3CCOCC3)CC2)N/C1=C\c1c2ccccc2cc2ccccc12` [Compound 13, (Z)-5-(Anthracen-10-ylmethylene)-2-(4-morpholinopiperidin-1-yl)-imidazol-4(5H)-one hydrochloride], the melting point fell in the range of 303 to 305 °C. Further, at ABCB1 efflux pump (concentration 2 µM), the “FAR Quotient (%)” value amounted to 6.04% and the “FAR (fluorescence activity ratio)” value stood at 0.968. The “FAR Quotient (%)” value at ABCB1 efflux pump (concentration 20 µM) was found to be 12.94%. Further, at ABCB1 efflux pump (setting [5]), the “FAR (fluorescence activity ratio)” value stood at 2.073. In data set [1], the “SI (selectivity index)” value came to 0.36 and the IC50 was determined as 48.6 µM. For the same molecule, in data set [2], the IC50 at 24 h was above 100 µM and the selectivity ratio at 24 h was at most 0.82. Besides, the IC50 at 24 h in data set [3] worked out at 82.2 µM. The concentration for half-maximal inhibition (IC50) in data set [4] was 17.4 µM.

Turning to `Cl.NC1=N/C(=C\c2ccc(Oc3ccccc3)cc2)C(=O)N1CCCN1CCOCC1` [Compound 17, (Z)-5-(4-Phenoxybenzylidene)-2-amino-3-(3-morpholinopropyl)-imidazol-4(5H)-one hydrochloride], the melting point lay within 210 to 212 °C. In addition, on ABCB1 efflux pump (concentration 2 µM), the “FAR Quotient (%)” value came out at 5.80% and the “FAR (fluorescence activity ratio)” value worked out at 0.929. Also, at ABCB1 efflux pump (concentration 20 µM), the “FAR Quotient (%)” value is reported as 14.37%. For the same molecule, the “FAR (fluorescence activity ratio)” value at ABCB1 efflux pump (setting [5]) was 2.301. Further, in data set [1], the “SI (selectivity index)” value is reported as 0.85 and the IC50 was 14.2 µM. Moreover, in data set [2], the IC50 at 24 h came out at 23.4 µM and the selectivity ratio at 24 h stood at 0.92. Moreover, the half-inhibitory concentration (IC50) at 24 h in data set [3] was found to be 21.5 µM. For the same molecule, in data set [4], the IC50 was 12.2 µM.

`Cl.O=C1N=C(N2CCC(N3CCOCC3)CC2)N/C1=C\c1ccc(-c2ccccc2)cc1` [Compound 8, (Z)-5-(Biphen-4-ylmethylene)-2-(4-morpholinopiperidin-1-yl)-imidazol-4(5H)-one hydrochloride] registered a melting point of 267 to 269 °C. For the same molecule, on ABCB1 efflux pump (concentration 2 µM), the “FAR Quotient (%)” value is on record as 8.49% and the “FAR (fluorescence activity ratio)” value worked out at 1.359. On ABCB1 efflux pump (concentration 20 µM), the “FAR Quotient (%)” value came out at 15.04%. For the same molecule, the “FAR (fluorescence activity ratio)” value on ABCB1 efflux pump (setting [5]) is 2.409. For the same molecule, in data set [1], the “SI (selectivity index)” value came out at 0.57 and the IC50 turned out to be 26 µM. Moreover, in data set [2], the IC50 at 24 h was 46.4 µM and the selectivity ratio at 24 h amounted to 0.52. In addition, the IC50 at 24 h in data set [3] came out at 24 µM. In data set [4], the IC50 is 14.8 µM.
